Laboratory results taken from patent US20250114380A1, “SMALL MOLECULE CD38 INHIBITORS AND METHODS OF USING SAME” (President and Fellows of Harvard College, priority 2011, published 2025).

Columns and labels:
cellular NADase activity = assay: Cellular NADase activity; format: cell-based
Text: FIG. 2A depicts inhibition in cellular NADase activity by CD38 inhibitors Apigenin and Quercetin. In certain embodiments, the invention relates to small molecules capable of inhibiting CD38 activity at nanomolar or micromolar concentrations (FIG. 1 and FIG. 3). Preliminary cellular assays on some of these compounds have shown that they are able to inhibit cellular NADase activity resulting in increased cellular NAD levels (FIG. 2a and FIG. 2b).

[1] = NAD+ levels in vivo in mice
Protocol: Cardiac [NAD^+] declines with age and is reversed by NMN treatment (n=3; 200 mg/kg/d intraperitoneally for 1 week).
(§1) FIG. 11A depicts the restorative effects of an NAD^+ precursor (NMN) on mitochondrial function in vivo.

[2] = test system: cultured murine oogonial stem cells; assay: Spontaneous oocyte formation assay; format: cell-based; conditions: 200 μM and 400 μM NMN
Protocol: FIG. 9 depicts the increase in spontaneuous oocyte formation in cultured murine oogonial stem cells by nicotinamide mononucleotide. For assessment of spontaneous oocyte formation, each well of a 24-well plate was seeded with 25.000 OSCs, and the number of oocytes formed and released into the medium per well was assessed the second day after seeding as well as the designated time points after NMN treatment. Left bar=vehicle; middle bar=200 μM nicotinamide mononucleotide (NMN); right bar=400 μM NMN.
For assessment of spontaneous oocyte formation, each well of a 24-well plate was seeded with 25.000 OSCs, and the number of oocytes formed and released into the medium per well was assessed the second day after seeding as well as the designated time points after NMN treatment.

murine OSCs = assay: Mitochondrial DNA copy number in OSCs; format: cell-based
Protocol: (§2) Oogonial stem cells were isolated from dissociated ovaries using a FACS based sorting protocol to purify OSCs free of contaminating oocytes (White et al., in press). Cells were maintained in culture medium consisted of minimum essential medium α (MEMα), 10% FBS, 1 mM sodium pyruvate, 1 mM non-essential amino acids, 2 mM 1-glutamine, 0.1 mM β-mercaptoethanol (Sigma), 10 ng/ml-1 LIF (Millipore), 1× N-2 MAX Media Supplement (R&D) 10 ng/ml EGF (Epidermal growth factor, Recombinant human; Gibco), 40 ng/ml human GDNF (glial cell line-derived neurotrophic factor; R&D systems), 1 ng/ml human bFGF (basic fibroblast growth factor; Gibco)
(§3) For all experiments 25,000 cells were plated in each well of a 24 well plate. Cells were allowed to attach for 24 h and then were treated with NMN (β-Nicotinamide mononucleotide; Sigma). Unless otherwise stated, NMN was added at for 12 and again for 6 hours before analysis (12+6 h).
Total cellular DNA was isolated from cells at the indicated time points using DNeasy Blood & Tissue Kit (Qiagen) according to the manufacturer's instructions. Mt DNA copy number was quantified using LightCycler 480 SYBR Green I Master (Roche Applied Science) using the following primers on a Roche 480 PCR machine.

[3] = test system: murine oogonial stem cells (OSCs); assay: NAD+/NADH levels in oogonial stem cells; format: cell-based
Protocol: as §2, §3
NAD+/NADH levels were measured according to the manufacturer's instructions using the NAD/NADH Quantitation Kit (Biovision)

C2C 2 cells = assay: Mitochondrial function in C2C 2 cells; format: cell-based; conditions: SIRT1-dependent (sh Ctl vs sh SIRT1)
[4] = Mitochondrial function in skeletal muscle in vivo; conditions: 24-month old mice, 1 week of treatment, I.P.
Text: as §1

Row | SMILES | cellular NADase activity (cellular NADase activity) | age-related decline of cardiac [NAD+] ([1]; 200 mg/kg/d intraperitoneally for 1 week) | rise of NAD+ levels in brain, heart and skeletal muscle ([1]; intraperitoneal injection) | NAD+ levels in vivo ([1]; young and old mice) | spontaneous oocyte formation [2] | mitochondrial DNA content (murine OSCs) | cellular NAD+ [3] | cellular NAD+/NADH [3] | cellular NADH [3] | mitochondrial function (C2C 2 cells) | decline in mitochondrial function in skeletal muscle [4]
1 | O=c1cc(-c2ccc(O)cc2)oc2cc(O)cc(O)c12 [Apigenin, 5,7,4′-Trihydroxyflavone] | inhibition |  |  |  |  |  |  |  |  |  | 
2 | NC(=O)c1ccc[n+]([C@@H]2O[C@H](COP(=O)([O-])O)[C@@H](O)[C@H]2O)c1 [NMN, β-Nicotinamide mononucleotide] |  | reversed | 30-100% | raises NAD^+ levels | increase | increase | increase | increase | increase | increases mitochondrial function | completely reversed
3 | O=c1c(O)c(-c2ccc(O)c(O)c2)oc2cc(O)cc(O)c12 [Quercetin, 3,5,7,3′,4′-Pentahydroxyflavone] | inhibition |  |  |  |  |  |  |  |  |  | 
